Common to all, as to type: biochemical
One assay addresses Cathepsin S (Homo sapiens, UniProt P25774). As to the kind of experiment: Cathepsin S inhibition, fluorogenic peptide substrate kinetic assay. Conditions: Cathepsin S inhibition constant, pH5.5, read-out: Ki Cat. S. A digest of the protocol:
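Ki values derive from apparent constants fitted to progress curves, corrected for competition with substrate via [S] and Km. Kinetics were monitored at 380 nm excitation/450 nm emission, after substrate addition (Ac-HPVK-ACC, 50 μM final) to start the reaction.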

The target of the next assay is T1, Cathepsin K (Homo sapiens, UniProt P43235).
T1 sequence (P43235 115-329): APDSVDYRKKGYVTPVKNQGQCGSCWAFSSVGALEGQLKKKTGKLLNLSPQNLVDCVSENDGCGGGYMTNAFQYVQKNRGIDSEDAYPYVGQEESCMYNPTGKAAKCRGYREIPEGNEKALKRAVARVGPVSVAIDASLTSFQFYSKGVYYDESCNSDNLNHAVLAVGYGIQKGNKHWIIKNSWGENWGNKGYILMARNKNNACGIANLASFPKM
As to the kind of experiment: Cathepsin K inhibition, fluorogenic peptide substrate kinetic assay. The note with it: Table III; Cathepsin K inhibition constant, pH5.5; read-out: Ki Cat. K. Here is the method: (§1) The optimal substrate for cathepsin K, acetyl-lysine-histidine-proline-lysine-amino carbamoyl coumarin, was identified from screening a combinatorial library of fluorogenic peptide substrates (Harris, J. L., B. J. Backes, et al., Proc Natl Acad Sci U S A 2000, 97(14), 7754-9). Kinetic measurements are performed in a total reaction volume of 30 μl in 384-well microtiter plates. […] The reactions are initiated by adding the substrate, acetyl-lysine-histidine-proline-lysine-amino carbamoyl coumarin, to a final concentration of 40 μM. The rate of substrate hydrolysis is measured by monitoring the increase in fluorescence at an excitation wavelength of 380 nm and an emission wavelength of 450 nm that results from cleavage of the aniline bond in the substrate by the enzyme. The apparent inhibition constants for the compounds are determined from the enzyme progress curves (Kuzmic, P., K. C. Elrod, et al., Anal Biochem 2000, 286(1), 45-50) and are then used to calculate the inhibition constants for competitive inhibitors.

The next assay deals with Cathepsin L (Homo sapiens, UniProt P07711). As to the kind of experiment: Cathepsin L inhibition, fluorogenic peptide substrate kinetic assay. Conditions: Table III; Cathepsin L inhibition constant, pH5.5; read-out: Ki Cat. L. How it is done:
as §1, with “Kinetic” for “The optimal substrate for cathepsin K, acetyl-lysine-histidine-proline-lysine-amino carbamoyl coumarin, was identified from screening a combinatorial library of fluorogenic peptide substrates (Harris, J. L., B. J. Backes, et al., Proc Natl Acad Sci U S A 2000, 97(14), 7754-9). Kinetic”, “acetyl-histidine-lysine-phenylalanine-lysine-amino” for “acetyl-lysine-histidine-proline-lysine-amino”, “20” for “40”

The target of another assay is Cathepsin B (Homo sapiens, UniProt P07858). As to the kind of experiment: Cathepsin B inhibition, fluorogenic peptide substrate kinetic assay. Conditions: Table III; Cathepsin B inhibition constant, pH5.5; read-out: Ki Cat. B. Here is the method:
The optimal substrate for cathepsin B, acetyl-histidine-proline-valine-lysine-amino carbamoyl coumarin, was identified from screening a combinatorial library of fluorogenic peptide substrates (Harris, J. L., B. J. Backes, et al., Proc Natl Acad Sci USA 2000, 97(14), 7754-9). Kinetic measurements are performed in a total reaction volume of 30 μl in 384-well microtiter plates. Cathepsin B, at a final concentration of 1.5 nM (active site), is incubated with the compounds at twelve varying concentrations in a buffer containing 100 mM NaAc (pH5.5), 1 mM EDTA, 100 mM NaCl, 0.01% Brij-35 for 20 minutes at room temperature. Control reactions in the absence of inhibitor are performed in replicates of 24. The reactions are initiated by adding the substrate, acetyl-histidine-proline-valine-lysine-amino carbamoyl coumarin, to a final concentration of 10 μM. The rate of substrate hydrolysis is measured by monitoring the increase in fluorescence at an excitation wavelength of 380 nm and an emission wavelength of 450 nm that results from cleavage of the aniline bond in the substrate by the enzyme. The apparent inhibition constants for the compounds are determined from the enzyme progress curves (Kuzmie, P., K. C. Elrod, et al., Anal Biochem 2000, 286(1), 45-50) and are then used to calculate the inhibition constants for competitive inhibitors.

Read-outs that look alike come from different tables or passages of the source. A value given as a limit tells only on which side of the number the result lay.

Sequence of Cathepsin L (P07711 114-333, species assumed): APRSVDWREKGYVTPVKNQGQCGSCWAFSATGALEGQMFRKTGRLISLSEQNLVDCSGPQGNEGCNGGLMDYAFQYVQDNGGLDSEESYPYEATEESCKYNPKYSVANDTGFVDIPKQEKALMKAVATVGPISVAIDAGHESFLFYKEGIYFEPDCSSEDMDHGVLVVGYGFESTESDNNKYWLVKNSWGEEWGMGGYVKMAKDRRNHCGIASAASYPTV
Sequence of Cathepsin S (P25774 115-331, species assumed): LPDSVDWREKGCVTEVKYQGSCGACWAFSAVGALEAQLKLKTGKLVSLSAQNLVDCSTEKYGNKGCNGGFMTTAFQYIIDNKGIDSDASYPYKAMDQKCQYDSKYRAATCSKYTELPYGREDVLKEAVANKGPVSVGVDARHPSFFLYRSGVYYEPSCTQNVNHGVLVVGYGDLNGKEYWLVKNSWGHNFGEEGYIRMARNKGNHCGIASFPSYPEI

For `COc1ccc(N2CCC[C@H](NC(=O)[C@H](CC(C)C)NC(=O)c3cccc(C)c3)C2)cc1` (single isomer, unassigned) [Compound 31], the Ki (usually a dissociation constant, usually derived from enzyme kinetics or from competition with a known ligand) is under 10000 nM on Cathepsin S (Table II); under 10000 nM on Cathepsin S (Table III); under 10 µM on Cathepsin K; under 1 µM at Cathepsin L; over 10 µM on Cathepsin B.
Consider `Cc1cccc(C(=O)N[C@@H](CC2CCCC2)C(=O)NCCN2CCc3cc(F)ccc32)c1` [Compound 201, (S)-N-{2-Cyclopentyl-1-[2-(5-fluoro-2,3-dihydro-indol-1-yl)-ethylcarbamoyl]-ethyl}-3-methyl-benzamide], for which the Ki at Cathepsin S (Table II) was under 100 nM; at Cathepsin S (Table III) it was under 100 nM; at Cathepsin K, under 10 µM; on Cathepsin L, under 1 µM; at Cathepsin B, over 10 µM.
Consider `Cc1cccc(C(=O)N[C@@H](CC2CCCCC2)C(=O)NCCN2CCc3cc(F)ccc32)c1` [Compound 71, N—(S)-{2-cyclohexyl-1-[2-(5-fluoro-2,3-dihydro-indol-1-yl)-ethylcarbamoyl]-ethyl}-3-methyl-benzamide], for which the Ki was under 100 nM on Cathepsin S (Table II); under 100 nM at Cathepsin S (Table III); under 10 µM at Cathepsin K; under 0.1 µM at Cathepsin L; over 10 µM on Cathepsin B.
In the case of `C[C@@H](CNc1cc(F)ccc1F)NC(=O)[C@H](CC1CCCCC1)NC(=O)c1ccc(-c2cccc(F)c2)o1` [Compound 91, 5-(3-Fluoro-phenyl)-furan-2-carboxylic acid {2-cyclohexyl-1-(S)-[2-(2,5-difluoro-phenylamino)-1-(S)-methyl-ethylcarbamoyl]-ethyl}-amide], the Ki at Cathepsin S (Table II) is under 100 nM; at Cathepsin S (Table III), under 100 nM; at Cathepsin K it was under 10 µM; at Cathepsin L, under 1 µM; on Cathepsin B, under 10 µM.
With `Cc1nn(C)c(Cl)c1S(=O)(=O)N[C@@H](CC1CCCCC1)C(=O)NCCN1CCc2cc(F)ccc21` [Compound 241, (S)-2-(5-Chloro-1,3-dimethyl-1H-pyrazole-4-sulfonylamino)-3-cyclohexyl-N-[2-(5-fluoro-2,3-dihydro-indol-1-yl)-ethyl]-propionamide], the Ki was under 1000 nM at Cathepsin S (Table II); under 1000 nM at Cathepsin S (Table III); over 10 µM on Cathepsin K; under 10 µM on Cathepsin L; over 10 µM at Cathepsin B.
As for `CS(=O)(=O)Nc1ccc(C(=O)N[C@@H](CC2CCCCC2)C(=O)NCCN2CCc3cc(F)ccc32)cc1` [Compound 81, N-(S)-{2-cyclohexyl-1-[2-(5-fluoro-2,3-dihydro-indol-1-yl)-ethylcarbamoyl]-ethyl}-4-methanesulfonylamino-benzamide], the Ki at Cathepsin S (Table II) is under 100 nM; at Cathepsin S (Table III), under 100 nM; at Cathepsin K, under 10 µM; on Cathepsin L, under 10 µM; on Cathepsin B, over 10 µM.
With `Cn1nc(C(F)(F)F)cc1-c1ccc(S(=O)(=O)N[C@@H](CC2CCCCC2)C(=O)NCCN2CCc3cc(F)ccc32)s1` [Compound 231, (S)-3-Cyclohexyl-N-[2-(5-fluoro-2,3-dihydro-indol-1-yl)-ethyl]-2-[5-(2-methyl-5-trifluoromethyl-2H-pyrazol-3-yl)-thiophene-2-sulfonylamino]-propionamide], the Ki was under 100 nM at Cathepsin S (Table II); under 100 nM on Cathepsin S (Table III); over 10 µM on Cathepsin K; over 10 µM at Cathepsin L; over 10 µM on Cathepsin B.
For `C[C@@H](CNc1ccc(OC(F)(F)F)cc1)NC(=O)[C@H](CC1CCCCC1)NC(=O)c1cnn(-c2cccc(F)c2)c1` [Compound 141, 1-(3-Fluoro-phenyl)-1H-pyrazole-4-carboxylic acid {2-cyclohexyl-1-(S)-[1-(S)-methyl-2-(4-trifluoromethoxy-phenylamino)-ethylcarbamoyl]-ethyl}-amide], the Ki was under 100 nM at Cathepsin S (Table II); under 100 nM at Cathepsin S (Table III); over 10 µM at Cathepsin K; under 10 µM at Cathepsin L; over 10 µM on Cathepsin B.
For the compound `C[C@@H](CNc1ccccc1C(N)=O)NC(=O)[C@H](CC1CCCCC1)NC(=O)c1ccc(-c2cccc(F)c2)o1` [Compound 121, 5-(3-Fluoro-phenyl)-furan-2-carboxylic acid {1-(S)-[2-(2-carbamoyl-phenylamino)-1-(S)-methyl-ethylcarbamoyl]-2-cyclohexyl-ethyl}-amide], the Ki was under 1000 nM on Cathepsin S (Table II); under 1000 nM at Cathepsin S (Table III); under 10 µM on Cathepsin K; under 10 µM on Cathepsin L; under 10 µM at Cathepsin B.
Take `C[C@@H](CNc1cccc(C(N)=O)c1)NC(=O)[C@H](CC(C)(C)C)NC(=O)c1ccc(-c2cccc(F)c2)o1` [Compound 131, 5-(3-Fluoro-phenyl)-furan-2-carboxylic acid {1-(S)-[2-(3-carbamoyl-phenylamino)-1-(S)-methyl-ethylcarbamoyl]-3,3-dimethyl-butyl}-amide]: the inhibition constant (Ki) is under 100 nM on Cathepsin S (Table II); under 100 nM on Cathepsin S (Table III); under 1 µM at Cathepsin K; over 10 µM at Cathepsin L; over 10 µM at Cathepsin B.
`O=C(NC(CCC1CCCCC1)C(=O)NC(COCc1ccccc1)CN1CCc2cc(F)ccc21)c1cc2ccccc2[nH]1` (mixture of isomers) [Compound 41, 1H-Indole-2-carboxylic acid {(1S)-[2-benzyloxy-(1R)-(5-fluoro-2,3-dihydro-indol-1-ylmethyl)-ethylcarbamoyl]-3-cyclohexyl-propyl}-amide]: the Ki on Cathepsin S (Table II) was under 100 nM; on Cathepsin S (Table III), under 100 nM; at Cathepsin K, over 10 µM; on Cathepsin L it was under 1 µM; on Cathepsin B, under 1 µM.
Take `Cc1noc(C)c1NC(=O)N[C@@H](CC1CCCCC1)C(=O)NCCN1CCc2cc(F)ccc21` [Compound 221]: the Ki on Cathepsin S (Table II) is under 1000 nM; at Cathepsin S (Table III), under 1000 nM; at Cathepsin K, over 10 µM; on Cathepsin L, over 10 µM; at Cathepsin B, over 10 µM.
Regarding `C[C@@H](CNc1ccc(OC(F)(F)F)cc1)NC(=O)[C@H](CC1CCCCC1)NS(=O)(=O)c1cccc(Cl)c1` [Compound 181, (S,S)-2-(3-Chloro-benzenesulfonylamino)-3-cyclohexyl-N-[1-methyl-2-(4-trifluoromethoxy-phenylamino)-ethyl]-propionamide], the Ki at Cathepsin S (Table II) is under 100 nM; at Cathepsin S (Table III), under 100 nM; at Cathepsin K, over 10 µM; at Cathepsin L, under 10 µM; on Cathepsin B it was over 10 µM.
Consider `C[C@@H](CNc1ccc(OC(F)(F)F)cc1)NC(=O)[C@H](CC1CCCC1)NC(=O)O[C@@H]1CCOC1` [Compound 191, (S,S)-{2-Cyclopentyl-1-[1-methyl-2-(4-trifluoromethoxy-phenylamino)-ethylcarbamoyl]-ethyl}-carbamic acid tetrahydrofuran-3-(R)-yl ester], for which the Ki on Cathepsin S (Table II) is under 100 nM; at Cathepsin S (Table III), under 100 nM; on Cathepsin K, under 10 µM; at Cathepsin L it was over 10 µM; at Cathepsin B, over 10 µM.

For the origin of these results see patent publication US20040248887A1, “Inhibitors of cathepsin S” (IRM LLC, priority 2003, published 2004).
